Each block holds one compound with its values, some of them ahead of it.
Assays:
[1] = test system: healthy male and female human subjects; assay: Electrocardiographic effects (QT) of Fesoterodine formulations; type: in vivo; details: for QTc outlier analyses vs placebo: three days of treatment
Method: Fesoterodine formulations were administered orally to steady state at dosages of 4 mg and 28 mg per day to healthy male and female human subjects and the effect of such administration on QT values was determined.
The Fesoterodine 4 mg formulation was as follows. Higher dosage levels were obtained by administering multiple 4 mg formulations.
Steady state was determined by pharmacokinetic analysis of the Active Metabolite. Assay sensitivity was shown by a significant increase from baseline in QTcF and QTcI after multiple doses of moxifloxacin. The mean time-averaged QTcF increased by 8.6 ms after three days of treatment with moxifloxacin.
The study design was double-blind, single-site, randomized, placebo- and positive controlled, parallel. Two hundred and fifty-six male and female subjects were assigned to one of the following four treatment groups (N=64 each; at least 50% female): • Fesoterodine 4 mg.day • Fesoterodine 28 mg/day • Moxifloxacin 400 mg/day • Placebo
Subjects were administered 3 days of one of the above four treatments. Three 12-lead ECGs were downloaded from an H-12 flash card (data carrier) at each of the following time points on Days −1, 1, and 3: 1, 2, 3, 4, 6, 8, 10, 12, 14, 16, 18, and 23.5 hours. Plasma samples for the determination of Active Metabolite concentration (and the concentration of further metabolites) were drawn on Day 1 and Day 3 predose and at 1, 2, 3, 4, 6, 8, 12, and 23.5 hours postdose.

[2] = test system: patients with overactive bladder; assay: Efficacy trial of Fesoterodine fumarate vs tolterodine ER and placebo; type: in vivo, human; details: FAS with LOCF; for Number of micturitions per 24 hours, Treatment difference vs Pbo / Urge incontinence per 24 hours, Treatment difference vs Pbo: ANCOVA; for Treatment response (responder rate): end of treatment
Method: The Fesoterodine formulations were as follows: […]
The trial was conducted in 19 countries. A total of 1135 subjects were randomized and 1103 subjects were included in the full analysis set: 279 in the placebo treatment group, 265 in the 4 mg Fesoterodine treatment group, 276 in the 8 mg Fesoterodine treatment group, and 283 in the 4 mg tolterodine ER treatment group. The mean age of subjects was 57 years. A total of 81% were female and 97% were white. There were no notable differences among the treatment groups with respect to gender, race, age, or weight/BMI.

[3] = Storage in open vials at 40° C. and 75% r.H. (stability, HPLC); type: physicochemical
Method: Fesoterodine hydrogen fumarate, a granulate containing Fesoterodine hydrogen fumarate and xylitol in a weight-ratio of 10:90, as well as a composition comprising Fesoterodine hydrogen fumarate and xylitol were stored in open vials (25 ml brown glass bottles) for up to 12 weeks at 40° C. and 75% r.H. The results are shown in Table 4 below.
The degradation of Fesoterodine was measured by HPLC. The following conditions were used to measure degradation products in the stability testing of Fesoterodine hydrogen fumarate: • Column: Polaris C18-Ether, 3 μm, 250 mm×4.6 mm • Eluent A: Water/methanesulfonic acid 1000:0.5 (v/v) • Eluent B: Acetonitrile/methanesulfonic acid 1000:0.5 (v/v) • Typical gradient profile:
• Column temperature: 35° C. • Flow rate: 1.2 mL/min • Detection wavelength: 220 nm • Injection volume: 20 μL
The retention time of the Active Metabolite was about 4.1 min (rrt=0.50); response factor: 1.4.
Evaluation of the HPLC results was by the area percent method.
A comparison of the observed average purity of a Fesoterodine-containing granulate and a corresponding composition as compared to pure Fesoterodine after open storage under stress conditions is set out in Table 4, wherein values are indicated in % of Fesoterodine hydrogen fumarate remaining at various times.

[4] = Stability of blends of Fesoterodine with sugar alcohols / lactose; type: physicochemical
Method: Blends of Fesoterodine hydrogen fumarate with xylitol, sorbitol, mannitol and maltitol were stored for 6 weeks and 3 months in closed vials at 25° C. and 60% r.H., in closed vials at 40° C. and 75% r.H., or in open vials at 40° C. and 75% r.H. and then tested for stability by measuring the purity of Fesoterodine. The initial purity of the Fesoterodine in the blends was 99.7%.

[5] = test system: patients with overactive bladder; assay: Treatment-emergent adverse events in the efficacy trial (safety set)
Method: A randomized, double-blind, double dummy, placebo and active-controlled trial in adult male and female human subjects was conducted.
For the safety set, the number of patients were: 283 in the placebo treatment group, 272 in the Fesoterodine 4 mg/day treatment group, and 287 in the Fesoterodine 8 mg/day treatment group.

[6] = Degradation of Fesoterodine during tablet production and storage; type: physicochemical
Method: Granulates of Fesoterodine with various sugars and sugar alcohols were produced as described in Example 1. These granulates were then used to produce 4 mg tablets according to Example 2.1 and with the composition given as “Example C” in Table 1, as well as wherein the xylitol was substituted with mannitol, maltitol, sorbitol, or lactose.

[7] = 4 mg/day, N = 272, listed as Feso
[8] = 8 mg/day, N = 287, listed as Feso

Compound: COc1c(N2C[C@@H]3CCCN[C@@H]3C2)c(F)cc2c(=O)c(C(=O)O)cn(C3CC3)c12 [moxifloxacin, reference compound]
mean time-averaged QTcF increase ([1]; moxifloxacin 400 mg/day, after three days of treatment): 8.6 ms
QTc outlier analyses vs placebo [1]: a higher incidence of QTc outliers

Compound: Cc1ccc(O)c([C@H](CCN(C(C)C)C(C)C)c2ccccc2)c1 [Tolt, tolterodine, reference compound]
Number of micturitions per 24 hours, Treatment difference vs Pbo ([2]; 4 mg vs Pbo): −0.78
Urge incontinence per 24 hours, Treatment difference vs Pbo ([2]; 4 mg vs Pbo): −0.60
Number of micturitions per 24 hours, ANCOVA Endpoint LS Mean ([2]; 4 mg): −1.73
Urge incontinence per 24 hours, ANCOVA Endpoint LS Mean ([2]; 4 mg): −1.74
Number of micturitions per 24 hours, change from baseline at end of treatment, Mean (SD) ([2]; 4 mg/day): −1.69 (2.42)
Urge incontinence per 24 hours, change from baseline at end of treatment, Mean (SD) ([2]; 4 mg/day): −1.43 (2.20)
Treatment response (responder rate) ([2]; 4 mg/day): 72%

% of Fesoterodine hydrogen fumarate remaining (purity) ([3]; 1 week): 98.56%
% of Fesoterodine hydrogen fumarate remaining (purity) ([3]; 2 weeks): 97.67%
% of Fesoterodine hydrogen fumarate remaining (purity) ([3]; 4 weeks): 94.32%
% of Fesoterodine hydrogen fumarate remaining (purity) ([3]; 12 weeks): about 50%
% of Fesoterodine hydrogen fumarate remaining (purity) ([3]; 12 weeks, listed as Fesoterodine (pure)): 50.39%
% of Fesoterodine hydrogen fumarate remaining (purity) ([3]; Initial): 98.96%
Purity of Fesoterodine in blends ([4]; closed vial 25° C., 60% r.H., 3 months): 99.7%
Purity of Fesoterodine in blends ([4]; closed vial 25° C., 60% r.H., 6 weeks): 99.6%
Purity of Fesoterodine in blends ([4]; closed vial 40° C., 75% r.H., 6 weeks): 99.3%
Purity of Fesoterodine in blends ([4]; open vial 40° C., 75% r.H., 3 months): 53.1%
Purity of Fesoterodine in blends ([4]; open vial 40° C., 75% r.H., 6 weeks): 96.3%
Compound: CC(C)C(=O)Oc1ccc(CO)cc1[C@H](CCN(C(C)C)C(C)C)c1ccccc1 [Fesoterodine, 2-[(1R)-3-(diisopropylamino)-1-phenylpropyl]-4-(hydroxymethyl)phenyl isobutyrate]
mean time-averaged QTcF decrease ([1]; 4 mg Fesoterodine per day, after three days of treatment): 4.6 ms
mean time-averaged QTcF decrease ([1]; 28 mg Fesoterodine per day, after three days of treatment): 5.0 ms
effect on myocardial repolarization (QTcF and QTcI vs placebo) ([1]; multiple 4 mg and 28 mg doses): did not exert an effect on myocardial repolarization
QTc outlier analyses vs placebo [1]: no differences between the Fesoterodine treatment groups and placebo
Number of micturitions per 24 hours, Treatment difference vs Pbo ([2]; 4 mg vs Pbo): −0.81
Urge incontinence per 24 hours, Treatment difference vs Pbo ([2]; 4 mg vs Pbo): −0.81
Number of micturitions per 24 hours, ANCOVA Endpoint LS Mean ([2]; 4 mg): −1.76
Urge incontinence per 24 hours, ANCOVA Endpoint LS Mean ([2]; 4 mg): −1.95
Number of micturitions per 24 hours, change from baseline at end of treatment, Mean (SD) ([2]; 4 mg/day): −1.74 (2.66)
Urge incontinence per 24 hours, change from baseline at end of treatment, Mean (SD) ([2]; 4 mg/day): −1.44 (2.75)
Treatment response (responder rate) ([2]; 4 mg/day): 75%
Number of micturitions per 24 hours, Treatment difference vs Pbo ([2]; 8 mg vs Pbo): −0.93
Urge incontinence per 24 hours, Treatment difference vs Pbo ([2]; 8 mg vs Pbo): −1.08
Number of micturitions per 24 hours, ANCOVA Endpoint LS Mean ([2]; 8 mg): −1.88
Urge incontinence per 24 hours, ANCOVA Endpoint LS Mean ([2]; 8 mg): −2.22
Number of micturitions per 24 hours, change from baseline at end of treatment, Mean (SD) ([2]; 8 mg/day): −1.94 (3.15)
Urge incontinence per 24 hours, change from baseline at end of treatment, Mean (SD) ([2]; 8 mg/day): −1.81 (2.35)
Treatment response (responder rate) ([2]; 8 mg/day): 79%
incidence of blurred vision ([5]; 4 mg/day): 1%
incidence of dry throat ([5]; 4 mg/day): 1%
incidence of urinary retention ([5]; 4 mg/day): 1%
Any adverse event, subjects (%) ([5]; 4 mg/day, N = 272): 50%
Any adverse event, subjects n ([5]; 4 mg/day, N = 272): 135
Constipation, subjects (%) ([5]; 4 mg/day, N = 272): 3%
Constipation, subjects n ([5]; 4 mg/day, N = 272): 9
Fatigue, subjects (%) ([5]; 4 mg/day, N = 272): (<1) %
Fatigue, subjects n ([5]; 4 mg/day, N = 272): 1
Headache, subjects (%) ([5]; 4 mg/day, N = 272): (4) %
Headache, subjects n ([5]; 4 mg/day, N = 272): 12
Keratoconjunctivitis sicca, subjects (%) ([5]; 4 mg/day, N = 272): 2%
Keratoconjunctivitis sicca, subjects n ([5]; 4 mg/day, N = 272): 6
Mouth dry, subjects (%) ([5]; 4 mg/day, N = 272): 22%
Mouth dry, subjects n ([5]; 4 mg/day, N = 272): 59
Nasopharyngitis, subjects (%) ([5]; 4 mg/day, N = 272): (3) %
Nasopharyngitis, subjects n ([5]; 4 mg/day, N = 272): 8
Urinary tract infection, subjects (%) ([5]; 4 mg/day, N = 272): (3) %
Urinary tract infection, subjects n ([5]; 4 mg/day, N = 272): 8
Any adverse event, subjects (%) [5, 7]: (50) %
Constipation, subjects (%) [5, 7]: (3) %
Keratoconjunctivitis sicca, subjects (%) [5, 7]: (2) %
Mouth dry, subjects (%) [5, 7]: (22) %
incidence of blurred vision ([5]; 8 mg/day): 1%
incidence of dry throat ([5]; 8 mg/day): 3%
incidence of urinary retention ([5]; 8 mg/day): 1%
Any adverse event, subjects (%) ([5]; 8 mg/day, N = 287): 58%
Any adverse event, subjects n ([5]; 8 mg/day, N = 287): 167
Constipation, subjects (%) ([5]; 8 mg/day, N = 287): 5%
Constipation, subjects n ([5]; 8 mg/day, N = 287): 13
Fatigue, subjects (%) ([5]; 8 mg/day, N = 287): (<1) %
Fatigue, subjects n ([5]; 8 mg/day, N = 287): 1
Headache, subjects (%) ([5]; 8 mg/day, N = 287): (2) %
Headache, subjects n ([5]; 8 mg/day, N = 287): 7
Keratoconjunctivitis sicca, subjects (%) ([5]; 8 mg/day, N = 287): 4%
Keratoconjunctivitis sicca, subjects n ([5]; 8 mg/day, N = 287): 12
Mouth dry, subjects (%) ([5]; 8 mg/day, N = 287): 34%
Mouth dry, subjects n ([5]; 8 mg/day, N = 287): 97
Nasopharyngitis, subjects (%) ([5]; 8 mg/day, N = 287): (2) %
Nasopharyngitis, subjects n ([5]; 8 mg/day, N = 287): 5
Urinary tract infection, subjects (%) ([5]; 8 mg/day, N = 287): (3) %
Urinary tract infection, subjects n ([5]; 8 mg/day, N = 287): 9
Any adverse event, subjects (%) [5, 8]: (58) %
Constipation, subjects (%) [5, 8]: (5) %
Keratoconjunctivitis sicca, subjects (%) [5, 8]: (4) %
Mouth dry, subjects (%) [5, 8]: (34) %

hydrolyzation products and total degradation products in tablets prepared with the granulates [6]: 1.1-1.7%
Compound: maltitol
